Experimental findings from patent publication EP4682141A1, “TRICYCLIC COMPOUND” (ONO Pharmaceutical Co., Ltd., priority 2023, dated 2024) are described below.

In one test the target is T1, EP1 (Homo sapiens, UniProt P34995).
T1 construct: expressed in transfected cells; host or cells: CHO (EP1-CHO)
T1 sequence (P34995 1-402): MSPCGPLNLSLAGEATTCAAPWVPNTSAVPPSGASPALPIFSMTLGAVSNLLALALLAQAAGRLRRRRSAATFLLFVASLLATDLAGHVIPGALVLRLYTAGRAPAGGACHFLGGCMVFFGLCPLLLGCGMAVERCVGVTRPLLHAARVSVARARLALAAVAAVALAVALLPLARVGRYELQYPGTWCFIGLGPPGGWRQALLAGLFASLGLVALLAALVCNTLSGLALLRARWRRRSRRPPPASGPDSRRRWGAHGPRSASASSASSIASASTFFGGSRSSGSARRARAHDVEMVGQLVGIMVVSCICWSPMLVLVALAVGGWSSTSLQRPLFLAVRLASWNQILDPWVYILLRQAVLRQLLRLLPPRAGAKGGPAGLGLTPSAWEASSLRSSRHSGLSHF
Description: agonist activity on human EP1 receptor (intracellular calcium concentration, EP1-CHO cells). It counts as cell-based. As for the experimental part:
Using CHO cells (EP1-CHO, EP2-CHO, EP3-Chem1, EP4-CHO and IP-CHO) on which various human prostanoid receptors were forcibly expressed, the agonist activity of the test compound on the various prostanoid receptors was examined using the intracellular calcium concentration for EP1 and EP3, and the intracellular cyclic AMP (hereinafter, abbreviated as cAMP) production amount for EP2, EP4 and IP as indices.
The test compound and control substances (PGE2 and iloprost) were dissolved in dimethyl sulfoxide (DMSO) to prepare a 10 mmol/L solution. The prepared 10 mmol/L solution was thawed at the time of use, serially diluted using DMSO, and diluted with a buffer solution 1 for measurement (Hank's balanced salt solution (Thermofischer scientific) containing 1 w/v% human serum albumin (Sigma), 2 µmol/L indomethacin (Sigma), 2.5 mmol/L probenecid, and 10 mmol/L HEPES-NaOH (pH7.4)) or a buffer solution 2 for measurement (D-PBS (Nacalai Tesque) containing 0.1 w/v% human serum albumin, 2 µmol/L diclofenac (Sigma), and 1 mmol/L 3-isobutyl-1-methylxanthine (Sigma)) to perform experiments.
The intracellular calcium concentration was measured using Calcium 6 Assay Kit (Molecular Devices). On the day before the measurement, EP1-CHO and EP3-Chem 1 were obtained by thawing the frozen cells, suspended using Ham's F-12 medium (Thermofischer scientific) containing inactivated (56°C, 30 min) 9.8 vol% FBS (Thermofischer scientific) and penicillin-streptomycin (Nacalai Tesque), seeded into a 96 well UV plate to 1.0×10^5 cells per well, and static cultured at 37°C in the presence of 5%CO2. On the day of the measurement, the medium was removed, followed by addition of 120 µL of the Calcium indication solution dissolved in the buffer solution 1 for measurement and incubation at room temperature under light-shielding for about 1 hour. After 1 hour incubation, the 96 well UV plates were set in a fluorescence spectrophotometer (FDSS-7000, Hamamatsu Photonics) to measure the intracellular calcium concentration. Thirty microliters of the buffer solution 1 for measurement containing various concentrations of agonists were added, and the mixture was reacted. The intracellular calcium concentration was measured by irradiating the cells with 480 nm excitation light and measuring the fluorescence intensity at 540 nm.
(A change in cytosolic calcium serves as a functional read-out for many receptors and channels.)

In test [1] the test system is rat renal ischemia reperfusion (IR) model. Put plainly: in vivo drug efficacy in rat renal ischemia reperfusion (IR) model. More on the design: species or system Crl : CD (SD) rats. The procedure: The effect of the present compound on renal IR damage was evaluated using male rats.
Male Crl : CD (SD) rats aged 3 or 4 weeks were purchased from Charles River Laboratories Japan, and subjected to experiments. Animals were fed ad libitum with FR-2 (Funabashi Farm) at the time of arrival and with solid feed CE-2 (CLEA Japan) for one week before single kidney removal, and watered ad libitum.
After acclimation breeding, the right kidney was removed about 7 days before renal IR treatment. Specifically, the rats were allowed to inhale isoflurane (Mylan) for anesthesia, and administered buprenorphine (Otsuka Pharmaceutical) as an analgesic at 0.01 mg/kg. The right back was incised, the right kidney was removed, and then the incision was sutured.
Renal IR treatment was performed about 7 days after single kidney removal. Specifically, rats were anesthetized by intraperitoneal administration of sodium pentobarbital (Tokyo Chemical Industry) at a dose of 50 mg/kg, and administered buprenorphine as an analgesic at 0.01 mg/kg. The left abdomen was incised, and the renal artery and vein was sandwiched with a clamp (Natsume Seisakusho) to cause ischemia for 35 minutes. During ischemia, the rats were allowed to lie on a heat-retaining plate set at 38°C, and after 35 minutes, the clamp was removed for reperfusion. After visually confirming that blood flow to the kidney was recovered, the incision was sutured. The sham group was a sham-operated group in which neither ischemia nor reperfusion treatment was performed.
Animals were distributed on the day before renal IR treatment such that differences in the mean of the body weight in each group were not biased, and assigned animal numbers.
The compound of Example 7 (test substance) and physiological saline (Otsuka Pharmaceutical) as a vehicle were subcutaneously administered at 5 mL/kg using an injection needle 5 minutes before renal IR treatment. Saline was administered to the sham group in the same test. The administration dose is described in Table 16.
Specifically, the rats were allowed to inhale isoflurane for anesthesia on the day before renal IR treatment, and administered buprenorphine as an analgesic at 0.01 mg/kg. […] The incision was bonded with Dermabond Advanced (Johnson & Johnson). A pump containing a vehicle was also embedded in the sham group in the same test. The administration dose is described in Table 16.
After renal IR treatment, blood was collected through the tail vein on Day1, Day2, and Day3 to obtain serum. In addition, after renal IR treatment, rats were euthanized by exsanguination through the abdominal aorta under isoflurane anesthesia on Day3.
The respective concentrations of serum creatinine (sCre) and blood urea nitrogen (BUN) were measured using an automatic analyzer 7180 (Hitachi High-Tech).

The mark [2] stands for this setting: IR 1.0 µg/kg/min, subcutaneous osmotic pump, day 1.
Setting [3] is: IR 1.0 µg/kg/min, subcutaneous osmotic pump, day 2.
The mark [4] stands for this setting: IR 3.0 µg/kg/min, subcutaneous osmotic pump, day 1.
The mark [5] stands for this setting: IR 3.0 µg/kg/min, subcutaneous osmotic pump, day 2.
Setting [6] is: IR 0.1 mg/kg subcutaneous 5 minutes before renal IR treatment, day 1.
Where [7] appears, read: IR 0.1 mg/kg subcutaneous 5 minutes before renal IR treatment, day 2.
Where [8] appears, read: IR 0.1 mg/kg subcutaneous 5 minutes before renal IR treatment, day 3.
The mark [9] stands for this setting: IR 1.0 mg/kg subcutaneous 5 minutes before renal IR treatment, day 1.
The mark [10] stands for this setting: IR 1.0 mg/kg subcutaneous 5 minutes before renal IR treatment, day 2.
The mark [11] stands for this setting: IR 1.0 mg/kg subcutaneous 5 minutes before renal IR treatment, day 3.

Structures are written as SMILES.

One may read the EC50 as the concentration giving half of the maximal effect. Consider `C[C@@H](c1ccc(F)cc1F)[C@H](O)/C=C/[C@@H]1[C@H]2CCc3ccc(C(=O)O)c(F)c3O[C@H]2C[C@H]1O` [Example 1, (1R,2R,3aS,10aR)-1-[(1E,3R,4S)-4-(2,4-difluorophenyl)-3-hydroxy-1-penten-1-yl]-5-fluoro-2-hydroxy-2,3,3a,9,10,10a-hexahydro-1H-benzo[b]cyclopenta[f]oxepine-6-carboxylic acid], for which the EC50 on EP1 was determined as 3.5 µM.
On to `CC(c1ccccc1F)C(O)/C=C/[C@@H]1[C@H]2CCc3ccc(C(=O)O)c(F)c3O[C@H]2C[C@H]1O` (stereo partly drawn) [Example 3, (1R,2R,3aS,10aR)-5-fluoro-1-[(1E)-4-(2-fluorophenyl)-3-hydroxy-1-penten-1-yl]-2-hydroxy-2,3,3a,9,10,10a-hexahydro-1H-benzo[b]cyclopenta[f]oxepine-6-carboxylic acid], for which, on EP1, the EC50 turned out to be 7.3 µM.
In the case of `Cc1ccccc1C1(C(O)/C=C/[C@@H]2[C@H]3CCc4ccc(C(=O)O)c(F)c4O[C@H]3C[C@H]2O)CC1` (stereo partly drawn) [Example 5-2, (1R,2R,3aS,10aR)-5-fluoro-2-hydroxy-1-{(1E,3ξ)-3-hydroxy-3-[1-(2-methylphenyl)cyclopropyl]-1-propen-1-yl}-2,3,3a,9,10,10a-hexahydro-1H-benzo[b]cyclopenta[f]oxepine-6-carboxylic acid], the “blood urea nitrogen (BUN) concentration mean” value in test [1] (setting [2]) is reported as 75.5; in test [1] (setting [3]), 65.3; in test [1] (setting [4]), 63.4; in test [1] (setting [5]) it was 54.9. In addition, the “serum creatinine (sCre) concentration mean” value in test [1] (setting [2]) amounted to 0.91; in test [1] (setting [3]) it was 0.62; in test [1] (setting [4]) it was 0.79; in test [1] (setting [5]) it was 0.50.
As for `O=C(O)c1ccc2c(c1)O[C@H]1C[C@@H](O)[C@H](/C=C/[C@@H](O)C3(c4ccccc4)CC3)[C@H]1CC2` [Example 7, (1R,2R,3aS,10aR)-2-hydroxy-1-[(1E,3R)-3-hydroxy-3-(1-phenylcyclopropyl)-1-propen-1-yl]-2,3,3a,9,10,10a-hexahydro-1H-benzo[b]cyclopenta[f]oxepine-6-carboxylic acid], the “blood urea nitrogen (BUN) concentration mean” value is 74.6 in test [1] (setting [6]); 58.7 in test [1] (setting [7]); 46.3 in test [1] (setting [8]); 73.6 in test [1] (setting [9]); 53.1 in test [1] (setting [10]); 39.7 in test [1] (setting [11]). Also, the “serum creatinine (sCre) concentration mean” value in test [1] (setting [6]) is reported as 1.08; in test [1] (setting [7]), 0.72; in test [1] (setting [8]), 0.52; in test [1] (setting [9]), 0.99; in test [1] (setting [10]), 0.62; in test [1] (setting [11]), 0.44.
Consider `O=C(O)c1ccc2c(c1)O[C@H]1C[C@@H](O)[C@H](/C=C/C(O)C3(c4ccc(F)cc4)CCC3)[C@H]1CC2` (stereo partly drawn) [Example 7-13, (1R,2R,3aS,10aR)-1-{(1E,3ξ)-3-[1-(4-fluorophenyl)cyclobutyl]-3-hydroxy-1-propen-1-yl}-2-hydroxy-2,3,3a,9,10,10a-hexahydro-1H-benzo[b]cyclopenta[f]oxepine-6-carboxylic acid], for which the EC50 at EP1 amounted to 6.3 µM.
On the same count and under the same terms, the result for `O=C(O)c1ccc2c(c1Cl)O[C@H]1C[C@@H](O)[C@H](/C=C/C(O)C(F)(F)c3c(F)cccc3F)[C@H]1CC2` (stereo partly drawn) [Example 8, (1R,2R,3aS,10aR)-5-chloro-1-[(1E,3ξ)-4-(2,6-difluorophenyl)-4,4-difluoro-3-hydroxy-1-buten-1-yl]-2-hydroxy-2,3,3a,9,10,10a-hexahydro-1H-benzo[b]cyclopenta[f]oxepine-6-carboxylic acid] reads 2.7 µM.
With `Cc1c(C(=O)O)ccc2c1O[C@H]1C[C@@H](O)[C@H](/C=C/CC(C)(O)CCC(C)C)[C@H]1CC2` (stereo partly drawn) [Example 13, (1R,2R,3aS,10aR)-2-hydroxy-1-[(1E,4ξ)-4-hydroxy-4,7-dimethyl-1-octen-1-yl]-5-methyl-2,3,3a,9,10,10a-hexahydro-1H-benzo[b]cyclopenta[f]oxepine-6-carboxylic acid], the EC50 at EP1 is > 10 µM.
Same read-out and setting: the value for `O=C(O)c1ccc2c(c1)O[C@H]1CC[C@H](/C=C/C(O)C3(c4ccccc4F)CCC3)[C@H]1CC2` (stereo partly drawn) [Example 26-9, (1R,3aS,10aR)-1-{(1E,3ξ)-3-[1-(2-fluorophenyl)cyclobutyl]-3-hydroxy-1-propen-1-yl}-2,3,3a,9,10,10a-hexahydro-1H-benzo[b]cyclopenta[f]oxepine-6-carboxylic acid] was > 10 µM.
On the same count and under the same terms, the result for `O=C(O)c1ccc2c(c1Cl)O[C@H]1CC[C@H](/C=C/C(O)C3(c4ccccc4F)CCC3)[C@H]1CC2` (stereo partly drawn) [Example 26-17, (1R,3aS,10aR)-5-chloro-1-{(1E,3ξ)-3-[1-(2-fluorophenyl)cyclobutyl]-3-hydroxy-1-propen-1-yl}-2,3,3a,9,10,10a-hexahydro-1H-benzo[b]cyclopenta[f]oxepine-6-carboxylic acid] reads > 10 µM; that for `C=C(CCOC)C(O)/C=C/[C@H]1CC[C@@H]2Oc3c(ccc(C(=O)O)c3Cl)CC[C@@H]21` (stereo partly drawn) [Example 26-19, (1R,3aS,10aR)-5-chloro-1-[(1E,3ξ)-3-hydroxy-6-methoxy-4-methylene-1-hexen-1-yl]-2,3,3a,9,10,10a-hexahydro-1H-benzo[b]cyclopenta[f]oxepine-6-carboxylic acid], > 10 µM; that for `CCCC[C@H](CC)C(O)/C=C/[C@H]1CC[C@@H]2Oc3c(ccc(C(=O)O)c3Cl)CC[C@@H]21` (stereo partly drawn) [Example 26-20, (1R,3aS,10aR)-5-chloro-1-[(1E,3ξ,4S)-4-ethyl-3-hydroxy-1-octen-1-yl]-2,3,3a,9,10,10a-hexahydro-1H-benzo[b]cyclopenta[f]oxepine-6-carboxylic acid], > 10 µM.
